For orientation: pKi means the negative decadic logarithm of the Ki, by convention in mol/L.

The structures appear in SMILES notation. pKi: −log10 of the molar value.

Receptor-type tyrosine-protein phosphatase F, sequence (P10586 whole entry): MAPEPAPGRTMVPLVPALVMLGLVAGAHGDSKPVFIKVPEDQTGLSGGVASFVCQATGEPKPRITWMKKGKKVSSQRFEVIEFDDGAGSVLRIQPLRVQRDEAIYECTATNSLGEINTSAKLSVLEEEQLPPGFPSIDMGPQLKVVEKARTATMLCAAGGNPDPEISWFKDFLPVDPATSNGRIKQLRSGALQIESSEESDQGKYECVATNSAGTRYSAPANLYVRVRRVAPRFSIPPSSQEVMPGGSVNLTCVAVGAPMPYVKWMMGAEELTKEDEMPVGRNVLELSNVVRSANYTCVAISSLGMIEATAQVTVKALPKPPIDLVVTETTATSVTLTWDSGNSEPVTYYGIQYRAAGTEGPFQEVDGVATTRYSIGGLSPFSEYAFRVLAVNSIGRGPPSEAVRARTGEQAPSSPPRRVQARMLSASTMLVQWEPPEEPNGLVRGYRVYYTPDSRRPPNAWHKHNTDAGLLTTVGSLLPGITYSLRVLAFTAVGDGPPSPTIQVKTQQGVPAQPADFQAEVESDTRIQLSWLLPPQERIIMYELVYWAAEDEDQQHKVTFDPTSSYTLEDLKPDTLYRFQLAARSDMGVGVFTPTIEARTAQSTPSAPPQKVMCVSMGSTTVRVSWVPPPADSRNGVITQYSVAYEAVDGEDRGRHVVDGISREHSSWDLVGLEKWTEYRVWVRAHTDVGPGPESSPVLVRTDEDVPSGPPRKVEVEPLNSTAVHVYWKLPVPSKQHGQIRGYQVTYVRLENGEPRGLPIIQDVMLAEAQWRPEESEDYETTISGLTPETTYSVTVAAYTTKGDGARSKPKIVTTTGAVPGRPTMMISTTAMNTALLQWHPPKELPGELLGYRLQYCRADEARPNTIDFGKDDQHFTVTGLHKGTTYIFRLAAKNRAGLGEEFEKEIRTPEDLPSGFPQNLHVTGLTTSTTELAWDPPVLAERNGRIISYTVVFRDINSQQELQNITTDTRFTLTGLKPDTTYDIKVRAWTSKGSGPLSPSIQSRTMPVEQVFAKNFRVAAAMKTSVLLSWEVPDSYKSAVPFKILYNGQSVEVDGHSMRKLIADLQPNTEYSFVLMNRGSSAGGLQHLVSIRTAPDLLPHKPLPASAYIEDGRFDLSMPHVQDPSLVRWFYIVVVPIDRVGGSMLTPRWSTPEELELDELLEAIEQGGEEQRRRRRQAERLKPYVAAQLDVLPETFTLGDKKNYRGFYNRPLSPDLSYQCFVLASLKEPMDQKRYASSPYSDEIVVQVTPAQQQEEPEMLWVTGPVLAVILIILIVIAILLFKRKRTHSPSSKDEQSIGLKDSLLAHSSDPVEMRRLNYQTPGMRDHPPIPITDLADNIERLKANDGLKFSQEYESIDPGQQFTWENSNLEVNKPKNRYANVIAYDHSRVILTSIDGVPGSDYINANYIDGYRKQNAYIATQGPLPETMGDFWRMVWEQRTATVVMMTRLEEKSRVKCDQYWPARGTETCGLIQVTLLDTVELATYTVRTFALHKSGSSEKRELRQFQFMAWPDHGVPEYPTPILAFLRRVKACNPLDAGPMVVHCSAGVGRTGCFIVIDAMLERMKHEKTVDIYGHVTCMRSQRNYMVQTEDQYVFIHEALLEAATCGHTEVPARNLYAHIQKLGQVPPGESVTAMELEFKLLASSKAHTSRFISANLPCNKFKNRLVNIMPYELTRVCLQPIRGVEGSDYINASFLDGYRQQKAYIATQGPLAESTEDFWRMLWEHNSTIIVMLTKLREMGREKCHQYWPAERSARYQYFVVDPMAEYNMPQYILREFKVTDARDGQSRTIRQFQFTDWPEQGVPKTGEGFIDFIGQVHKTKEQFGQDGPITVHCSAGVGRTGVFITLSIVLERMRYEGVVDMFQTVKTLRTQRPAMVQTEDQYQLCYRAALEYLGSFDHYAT

The target of the first test is T1, Tyrosine-protein phosphatase non-receptor type 1 (Homo sapiens, UniProt P18031).
T1 sequence (P18031 whole entry): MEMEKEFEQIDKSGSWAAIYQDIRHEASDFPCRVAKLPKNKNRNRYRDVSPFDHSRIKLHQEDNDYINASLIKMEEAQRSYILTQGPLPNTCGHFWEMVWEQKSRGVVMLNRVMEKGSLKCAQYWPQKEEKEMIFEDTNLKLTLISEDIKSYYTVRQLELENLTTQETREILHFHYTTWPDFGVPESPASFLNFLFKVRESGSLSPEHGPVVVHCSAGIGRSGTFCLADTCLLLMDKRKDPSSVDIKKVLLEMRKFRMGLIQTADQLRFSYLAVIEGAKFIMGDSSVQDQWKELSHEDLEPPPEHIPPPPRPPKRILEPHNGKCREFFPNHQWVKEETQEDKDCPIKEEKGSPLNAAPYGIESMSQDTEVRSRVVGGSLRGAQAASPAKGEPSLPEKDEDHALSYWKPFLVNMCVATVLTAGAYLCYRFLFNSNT
Description: Inhibition of human recombinant PTP1B.
Turning to `O=C(O)COc1c(C(=O)O)sc(-c2cccc(NC3CCNCC3)c2)c1Br`, the negative-log Ki (pKi) is 5.42.
Still for that read-out and setting: as for `O=C(O)COc1c(C(=O)O)sc(-c2cccc(NCC3CCCCC3)c2)c1Br`, the figure is 6.70.
For `Cc1ccccc1NC(=O)N1CCC(CNc2cccc(-c3sc(C(=O)O)c(OCC(=O)O)c3Br)c2)CC1`, the negative-log Ki (pKi) is 8.52.
The same measure, in the same setting: under `COC(=O)N1CCC(Nc2cccc(-c3sc(C(=O)O)c(OCC(=O)O)c3Br)c2)CC1` stands 6.41; under `O=C(O)COc1c(C(=O)O)sc(-c2cccc(NCC3CCN(S(=O)(=O)Cc4ccccc4)CC3)c2)c1Br`, 7.13.
As for `O=C(O)COc1c(C(=O)O)sc(-c2cccc(NC3CCN(S(=O)(=O)Cc4cccc(Cl)c4)CC3)c2)c1Br`, the pKi is 8.00.
Same read-out and setting: under `COc1ccccc1NC(=O)N1CCC(CNc2cccc(-c3sc(C(=O)O)c(OCC(=O)O)c3Br)c2)CC1` stands 8.52; under `O=C(O)COc1c(C(=O)O)sc(-c2cccc(NS(=O)(=O)c3ccc(F)cc3)c2)c1Br`, 6.36.
The same measure, in the same setting: under `O=C(O)COc1c(C(=O)O)sc(-c2cccc(NC3CCN(S(=O)(=O)Cc4ccccc4)CC3)c2)c1Cl` stands 9.17; under `O=C(O)COc1c(C(=O)O)sc(-c2cccc(NC3CCN(C(=O)NCc4ccccc4)CC3)c2)c1Br`, 6.52.
Same read-out and setting: under `COc1cccc(-c2sc(C(=O)O)c(OCC(=O)O)c2Br)c1` stands 5.40; under `Cc1cccc(C)c1NC(=O)N1CCC(CNc2cccc(-c3sc(C(=O)O)c(OCC(=O)O)c3Br)c2)CC1`, 8.52.
For `CCNC(=O)Nc1ccccc1CS(=O)(=O)N1CCC(Nc2cccc(-c3sc(C(=O)O)c(OCC(=O)O)c3Br)c2)CC1`, the pKi is 7.85.
On the same count and under the same terms, as for `Cc1ccccc1CS(=O)(=O)N1CCC(Nc2cccc(-c3sc(C(=O)O)c(OCC(=O)O)c3Br)c2)CC1`, the figure is 8.40; as for `O=C(O)COc1c(C(=O)O)sc(-c2cccc(NCC3CCN(C(=O)Nc4ccccc4)CC3)c2)c1Br`, 8.15; as for `O=C(O)COc1c(C(=O)O)sc(-c2cccc(NCC3CCN(C(=O)Nc4ccccc4Cl)CC3)c2)c1Br`, 8.40.
On the same count and under the same terms, under `O=C(O)COc1cc(-c2cccc(NC3CCN(S(=O)(=O)Cc4ccccc4)CC3)c2)sc1C(=O)O` stands 5.70; under `O=C(O)COc1c(C(=O)O)sc(-c2cccc(NC3CCN(S(=O)(=O)Cc4ccccc4C(F)(F)F)CC3)c2)c1Br`, 8.22; under `CC(=O)N1CCC(Nc2cccc(-c3sc(C(=O)O)c(OCC(=O)O)c3Br)c2)CC1`, 6.72.
On the same count and under the same terms, as for `O=C(O)COc1c(C(=O)O)sc(-c2cccc(OCC3CCN(C(=O)Nc4ccccc4)CC3)c2)c1Br`, the figure is 7.89; as for `O=C(O)COc1c(C(=O)O)sc(-c2cccc(NC(=O)c3ccccc3)c2)c1Br`, 5.68.
With `O=C(O)COc1c(C(=O)O)sc(-c2cccc(NC3CCCCCC3)c2)c1Br`, the pKi is 6.92.
With `O=C(O)COc1c(C(=O)O)sc(-c2cccc(NC3CCCC3)c2)c1Br`, the pKi is 6.41.
Same read-out and setting: under `O=C(O)COc1c(C(=O)O)sc(-c2cccc(NC3CCN(S(=O)(=O)c4ccccc4)CC3)c2)c1Br` stands 7.26.
The same measure, in the same setting: under `O=C(O)COc1c(C(=O)O)sc(-c2cccc(NCC3CCN(S(=O)(=O)c4ccccc4)CC3)c2)c1Br` stands 6.51; under `O=C(O)COc1c(C(=O)O)sc(-c2cccc(NC3CCOCC3)c2)c1Br`, 6.51.
Regarding `O=C(O)COc1c(C(=O)O)sc(-c2cccc(NC3CCN(S(=O)(=O)Cc4ccccc4Cl)CC3)c2)c1Br`, the pKi is 8.30.
Consider `CCC(=O)Nc1cccc(-c2sc(C(=O)O)c(OCC(=O)O)c2Br)c1`, for which the pKi is 5.70.
Still for that read-out and setting: under `O=C(O)COc1c(C(=O)O)sc(-c2cccc(OCc3ccccc3)c2)c1Br` stands 6.17; under `O=C(O)COc1c(C(=O)O)sc(-c2cccc(NC3CCN(S(=O)(=O)Cc4ccc(Cl)cc4)CC3)c2)c1Br`, 7.42; under `Nc1cccc(-c2sc(C(=O)O)c(OCC(=O)O)c2Br)c1`, 5.77.
Same read-out and setting: as for `CS(=O)(=O)Nc1ccccc1CS(=O)(=O)N1CCC(Nc2cccc(-c3sc(C(=O)O)c(OCC(=O)O)c3Br)c2)CC1`, the figure is 9.00.
With `O=C(O)COc1c(C(=O)O)sc(-c2cccc(OC3CCN(S(=O)(=O)Cc4ccccc4)CC3)c2)c1Br`, the pKi was 7.62.
The same measure, in the same setting: under `Cc1cccc(C)c1CS(=O)(=O)N1CCC(Nc2cccc(-c3sc(C(=O)O)c(OCC(=O)O)c3Br)c2)CC1` stands 8.22.
For the compound `Cc1c(-c2cccc(NC3CCN(S(=O)(=O)Cc4ccccc4)CC3)c2)sc(C(=O)O)c1OCC(=O)O`, the pKi was 8.10.
On the same count and under the same terms, as for `CC(C)NC(=O)Nc1cccc(-c2sc(C(=O)O)c(OCC(=O)O)c2Br)c1`, the figure is 5.68.
In the case of `COC(=O)Nc1cccc(-c2sc(C(=O)O)c(OCC(=O)O)c2Br)c1`, the pKi was 5.70.
Still for that read-out and setting: under `CS(=O)(=O)N1CCC(Nc2cccc(-c3sc(C(=O)O)c(OCC(=O)O)c3Br)c2)CC1` stands 7.36.

A further test addresses Receptor-type tyrosine-protein phosphatase F (Homo sapiens, UniProt P10586). Briefly: Inhibition of human recombinant LAR.
For `O=C(O)COc1c(C(=O)O)sc(-c2ccccc2)c1Br`, the pKi was < 3.30.
In the case of `CC1(C)CC(Nc2cccc(-c3sc(C(=O)O)c(OCC(=O)O)c3Br)c2)CC(C)(C)C1`, the pKi was < 3.00.

The target in the next test is T2, Receptor-type tyrosine-protein phosphatase C (Homo sapiens, UniProt P08575).
T2 sequence (P08575 whole entry): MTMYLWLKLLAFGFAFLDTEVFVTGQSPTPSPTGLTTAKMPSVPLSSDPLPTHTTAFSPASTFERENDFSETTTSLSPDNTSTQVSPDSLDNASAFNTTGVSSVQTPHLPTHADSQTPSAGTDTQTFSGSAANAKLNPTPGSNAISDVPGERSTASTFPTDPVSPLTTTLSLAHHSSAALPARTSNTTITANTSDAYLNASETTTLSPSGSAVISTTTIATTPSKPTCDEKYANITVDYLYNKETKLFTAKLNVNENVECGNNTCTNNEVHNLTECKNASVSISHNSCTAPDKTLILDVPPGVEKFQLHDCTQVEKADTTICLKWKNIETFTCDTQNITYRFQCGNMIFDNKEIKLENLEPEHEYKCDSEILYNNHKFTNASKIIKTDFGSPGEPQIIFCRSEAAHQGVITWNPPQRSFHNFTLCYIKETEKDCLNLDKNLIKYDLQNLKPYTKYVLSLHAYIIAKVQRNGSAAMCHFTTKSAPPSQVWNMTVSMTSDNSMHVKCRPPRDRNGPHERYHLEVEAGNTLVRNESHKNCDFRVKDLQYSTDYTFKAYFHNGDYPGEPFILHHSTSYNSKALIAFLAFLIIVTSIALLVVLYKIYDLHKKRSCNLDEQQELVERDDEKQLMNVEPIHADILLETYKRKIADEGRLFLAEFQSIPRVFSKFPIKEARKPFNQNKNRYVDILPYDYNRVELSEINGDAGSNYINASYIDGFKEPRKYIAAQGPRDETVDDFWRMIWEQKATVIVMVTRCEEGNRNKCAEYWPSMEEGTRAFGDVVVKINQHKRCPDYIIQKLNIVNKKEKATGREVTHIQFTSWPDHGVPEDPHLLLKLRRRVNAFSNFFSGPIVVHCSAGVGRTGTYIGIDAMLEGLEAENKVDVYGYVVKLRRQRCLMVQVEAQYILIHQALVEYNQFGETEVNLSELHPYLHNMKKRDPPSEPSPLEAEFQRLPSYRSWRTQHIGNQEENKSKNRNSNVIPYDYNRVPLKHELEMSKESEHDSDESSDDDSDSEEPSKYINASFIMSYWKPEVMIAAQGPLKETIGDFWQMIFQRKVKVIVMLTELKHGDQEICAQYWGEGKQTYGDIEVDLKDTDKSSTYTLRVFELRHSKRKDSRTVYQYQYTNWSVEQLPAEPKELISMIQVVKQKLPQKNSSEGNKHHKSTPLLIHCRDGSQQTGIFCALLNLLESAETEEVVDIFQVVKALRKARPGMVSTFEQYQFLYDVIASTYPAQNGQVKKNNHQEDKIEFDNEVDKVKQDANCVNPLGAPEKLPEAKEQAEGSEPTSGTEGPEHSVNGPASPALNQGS
Description: Inhibition of human recombinant CD45.
As for `O=C(O)COc1c(C(=O)O)sc(-c2ccccc2)c1Br`, the pKi is 3.55.
Still for that read-out and setting: under `CC1(C)CC(Nc2cccc(-c3sc(C(=O)O)c(OCC(=O)O)c3Br)c2)CC(C)(C)C1` stands 3.82.

Values taken from ChEMBL document CHEMBL1148776, “Structure-based optimization of protein tyrosine phosphatase 1B inhibitors: from the active site to the second phosphotyrosine binding site” (J Med Chem, 2007).
